# Results taken from patent US20240294518A1, “NITROGEN-CONTAINING HETEROCYCLIC COMPOUND” (Evopoint Biosciences Co., Ltd., priority 2021, published 2024).
# Molecular target: HPK1 kinase (Homo sapiens, UniProt Q92918)
# Experiment: HPK1 kinase inhibition assay, ADP-Glo platform
# Type: biochemical
# Conditions: 0.3 nM HPK1, 5 μM ATP, 0.05 mg/mL MBP
# Procedure: The compounds to be tested were each dissolved in 100% DMSO, with the mother liquor concentration being 10 mM. The liquor was 3-fold diluted at a test starting concentration of 10 μM to yield ten data points, with two replicates set for each point.
# The inhibition of the activity of HPK1 kinase by the compound was assayed using an ADP-Glo™ platform. The reaction was performed in a 384-well plate containing 0.3 nM HPK1, 5 μM ATP, 0.05 mg/mL MBP, 0-10 μM compound, and 1% DMSO per well. The reaction buffer was as follows: 50 mM HEPES, 10 mM MgCl2, 1 mM EGTA, 1 mM DTT, 0.01% Brij 35, pH=7.5. The compound and the kinase were incubated at 25° C. for 15 min, and a substrate and ATP were added to initiate the reaction. After 1 h of reaction at 25° C., the ADP-Glo™ reagent was added, and the reaction was terminated, followed by incubation at 25° C. for 1 h. The kinase detection reagent was added, and after 1 h of incubation at 25° C., the chemiluminescence signal was detected. Based on this reading, inhibition percentage was calculated, and IC50 for the compound was calculated using four-parameter fitting.
# HPK1 kinase, sequence (Q92918 whole entry): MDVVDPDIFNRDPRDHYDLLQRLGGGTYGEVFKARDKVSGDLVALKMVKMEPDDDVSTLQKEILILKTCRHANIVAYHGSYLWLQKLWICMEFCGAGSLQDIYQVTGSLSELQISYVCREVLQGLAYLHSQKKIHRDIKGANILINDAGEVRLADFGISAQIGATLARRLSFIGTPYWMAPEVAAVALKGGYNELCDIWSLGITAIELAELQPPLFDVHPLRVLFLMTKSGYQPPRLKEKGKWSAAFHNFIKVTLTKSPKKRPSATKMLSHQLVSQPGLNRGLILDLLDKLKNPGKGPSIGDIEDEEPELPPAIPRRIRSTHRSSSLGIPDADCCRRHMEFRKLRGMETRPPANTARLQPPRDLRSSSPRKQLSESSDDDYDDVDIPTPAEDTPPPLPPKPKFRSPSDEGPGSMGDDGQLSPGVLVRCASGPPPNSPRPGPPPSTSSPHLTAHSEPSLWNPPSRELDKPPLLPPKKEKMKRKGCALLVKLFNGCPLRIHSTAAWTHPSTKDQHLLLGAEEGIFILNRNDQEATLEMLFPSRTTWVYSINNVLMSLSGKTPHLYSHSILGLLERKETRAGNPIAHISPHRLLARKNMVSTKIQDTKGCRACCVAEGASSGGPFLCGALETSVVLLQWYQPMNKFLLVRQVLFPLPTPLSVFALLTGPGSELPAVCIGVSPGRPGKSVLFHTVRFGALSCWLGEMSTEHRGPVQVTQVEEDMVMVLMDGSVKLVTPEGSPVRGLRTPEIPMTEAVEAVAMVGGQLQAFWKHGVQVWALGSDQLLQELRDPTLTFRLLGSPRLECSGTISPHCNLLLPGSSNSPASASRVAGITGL
row,SMILES,IC50 [nM]
1,Cc1c[nH]c2ncc(-c3ccc(C4CCOCC4)c(C4COCCN4)n3)c(F)c12 (stereo not drawn) [Compound A-7],10 to 100
2,Cc1c[nH]c2ncc(-c3cc(C4COCCN4)c(C4CCOCC4)cc3Cl)cc12 (stereo not drawn) [Compound A-8],10 to 100
3,Cc1c[nH]c2ncc(-c3ccc(C4CCOCC4)c(C4COCCN4)c3F)cc12 (stereo not drawn) [Compound A-10],10 to 100
4,Cc1c[nH]c2ncc(-c3cc(C4COCCN4)c(C4CCOCC4)cc3F)cc12 (stereo not drawn) [Compound A-11],10 to 100
5,Cc1c[nH]c2ncc(-c3cc(Cl)c(C4=CCOCC4)c(C4COCCN4)c3)cc12 (stereo not drawn) [Compound A-13],5 to 10
6,c1nc2[nH]cc(C3CC3)c2cc1-c1ccc(C2CCOCC2)c([C@H]2COCCN2)n1 [Compound A-16],10 to 100
7,Clc1c[nH]c2ncc(-c3ccc(C4CCOCC4)c([C@H]4COCCN4)n3)cc12 [Compound A-19],10 to 100
8,OCc1c[nH]c2ncc(-c3ccc(C4CCOCC4)c(C4COCCN4)n3)cc12 (stereo not drawn) [Compound A-21],5 to 10
9,FC(F)(F)c1c[nH]c2ncc(-c3ccc(C4CCOCC4)c(CN4CCCC4)n3)cc12 [Compound A-23],5 to 10
10,C[C@H]1CCCN1Cc1nc(-c2cnc3[nH]cc(C4CC4)c3c2)ccc1C1CCOCC1 [Compound A-24],5 to 10
11,Cc1c[nH]c2ncc(-c3ccc(C4CCOCC4)c(CN4CCCC4)n3)cc12 [Compound A-26],10 to 100
12,CN(C)Cc1nc(-c2cnc3[nH]cc(C(F)(F)F)c3c2)ccc1C1CCOCC1 [Compound A-28],10 to 100
13,Cc1cc(-c2cnc3[nH]cc(C(F)(F)F)c3c2)cc([C@H]2COCCN2)c1C1CCOCC1 [Compound A-32],5 to 10
14,COc1cc(-c2cnc3[nH]cc(C(F)(F)F)c3c2)cc([C@H]2COCCN2)c1C1CCOCC1 [Compound A-35],10 to 100

# Other lines, results leading:
row,IC50 [nM],SMILES
1,0.01 to 5,"CN(C)C(=O)C#Cc1c[nH]c2ncc(-c3ccc(C4CCOCC4)c(C4COCCN4)c3)cc12 (single isomer, unassigned) [Compound A-14]"
2,5 to 10,Cc1c[nH]c2ncc(-c3ccc(C4CCOCC4)c(C4COCCN4)c3)c(F)c12 (stereo not drawn) [Compound A-3]
3,0.01 to 5,Cc1cc(-c2cnc3[nH]cc(C)c3c2)cc(C2COCCN2)c1C1CCOCC1 (stereo not drawn) [Compound A-5]
4,0.01 to 5,Cc1c[nH]c2ncc(-c3cc(Cl)c(C4CCOCC4)c(C4COCCN4)c3)cc12 (stereo not drawn) [Compound A-6]
5,5 to 10,COc1cc(-c2cnc3[nH]cc(C)c3c2)cc(C2COCCN2)c1C1CCOCC1 (stereo not drawn) [Compound A-9]
6,0.01 to 5,Cc1cc(-c2cnc3[nH]cc(C)c3c2)cc(C2COCCN2)c1C1=CCOCC1 (stereo not drawn) [Compound A-12]
7,0.01 to 5,c1nc2[nH]cc(C3CC3)c2cc1-c1ccc(C2CCOCC2)c([C@@H]2COCCN2)n1 [Compound A-15]
8,0.01 to 5,FC(F)(F)c1c[nH]c2ncc(-c3ccc(C4CCOCC4)c([C@@H]4COCCN4)n3)cc12 [Compound A-18]
9,0.01 to 5,Clc1c[nH]c2ncc(-c3ccc(C4CCOCC4)c([C@@H]4COCCN4)n3)cc12 [Compound A-20]
10,0.01 to 5,c1nc2[nH]cc(C3CC3)c2cc1-c1ccc(C2CCOCC2)c(CN2CCCC2)n1 [Compound A-22]
11,0.01 to 5,C[C@@H]1CCCN1Cc1nc(-c2cnc3[nH]cc(C4CC4)c3c2)ccc1C1CCOCC1 [Compound A-25]
12,0.01 to 5,Cc1cc(-c2cnc3[nH]cc(C(F)(F)F)c3c2)nc(C2COCCN2)c1C1CCOCC1 (stereo not drawn) [Compound A-27]
13,0.01 to 5,COC(=O)c1c[nH]c2ncc(-c3ccc(C4CCOCC4)c(C4COCCN4)n3)cc12 (stereo not drawn) [Compound A-29]
14,0.01 to 5,FC(F)(F)C1(c2c[nH]c3ncc(-c4ccc(C5CCOCC5)c([C@@H]5COCCN5)n4)cc23)CC1 [Compound A-30]
15,0.01 to 5,Cc1cc(-c2cnc3[nH]cc(C(F)(F)F)c3c2)cc([C@@H]2COCCN2)c1C1CCOCC1 [Compound A-33]
16,0.01 to 5,COc1cc(-c2cnc3[nH]cc(C(F)(F)F)c3c2)cc([C@@H]2COCCN2)c1C1CCOCC1 [Compound A-34]
17,0.01 to 5,Cc1cc(-c2cnc3[nH]cc(C)c3c2)cc([C@@H]2COCCN2)c1C1CCOCC1 [Compound A-36]
18,0.01 to 5,COc1cc(-c2cnc3[nH]cc(C)c3c2)cc([C@@H]2COCCN2)c1C1CCOCC1 [Compound A-38]
19,0.01 to 5,Cc1c[nH]c2ncc(-c3cc(O)c(C4CCOCC4)c(C4COCCN4)c3)cc12 (stereo not drawn) [Compound A-39]
